Assay results from patent publication US20230277570A1, “ENPP1 Inhibitors and Their Use for the Treatment of Cancer” (The Board of Trustees of the Leland Stanford Junior …, priority 2017, published 2023).

Target: T1, purified recombinant mouse ENPP1 (Mus musculus (Mouse), UniProt P06802)
Assay: ENPP1 activity assay using thymidine monophosphate paranitrophenol (TMP-pNP) as a substrate
Format: biochemical
Conditions: TMP-pNP 2 μM, mouse ENPP1 0.5 nM, pH 7.5
Experimental: Selected compounds of Table 1, Table 2 and other derivatives were prepared and assessed in an ENPP1 activity assay using thymidine monophosphate paranitrophenol (TMP-pNP) as a substrate. Enzyme reactions were prepared with TMP-pNP (2 μM), 5-fold dilutions of ENPP1 inhibitor, and purified recombinant mouse ENPP1 (0.5 nM) in 100 mM Tris, 150 mM NaCl, 2 mM CaCl2, 200 μM ZnCl2, pH 7.5 at room temperature. Reaction progress was monitored by measuring absorbance at 400 nm of paranitrophenolate produced by the reaction for 20 minutes.

T1 sequence (P06802 whole entry): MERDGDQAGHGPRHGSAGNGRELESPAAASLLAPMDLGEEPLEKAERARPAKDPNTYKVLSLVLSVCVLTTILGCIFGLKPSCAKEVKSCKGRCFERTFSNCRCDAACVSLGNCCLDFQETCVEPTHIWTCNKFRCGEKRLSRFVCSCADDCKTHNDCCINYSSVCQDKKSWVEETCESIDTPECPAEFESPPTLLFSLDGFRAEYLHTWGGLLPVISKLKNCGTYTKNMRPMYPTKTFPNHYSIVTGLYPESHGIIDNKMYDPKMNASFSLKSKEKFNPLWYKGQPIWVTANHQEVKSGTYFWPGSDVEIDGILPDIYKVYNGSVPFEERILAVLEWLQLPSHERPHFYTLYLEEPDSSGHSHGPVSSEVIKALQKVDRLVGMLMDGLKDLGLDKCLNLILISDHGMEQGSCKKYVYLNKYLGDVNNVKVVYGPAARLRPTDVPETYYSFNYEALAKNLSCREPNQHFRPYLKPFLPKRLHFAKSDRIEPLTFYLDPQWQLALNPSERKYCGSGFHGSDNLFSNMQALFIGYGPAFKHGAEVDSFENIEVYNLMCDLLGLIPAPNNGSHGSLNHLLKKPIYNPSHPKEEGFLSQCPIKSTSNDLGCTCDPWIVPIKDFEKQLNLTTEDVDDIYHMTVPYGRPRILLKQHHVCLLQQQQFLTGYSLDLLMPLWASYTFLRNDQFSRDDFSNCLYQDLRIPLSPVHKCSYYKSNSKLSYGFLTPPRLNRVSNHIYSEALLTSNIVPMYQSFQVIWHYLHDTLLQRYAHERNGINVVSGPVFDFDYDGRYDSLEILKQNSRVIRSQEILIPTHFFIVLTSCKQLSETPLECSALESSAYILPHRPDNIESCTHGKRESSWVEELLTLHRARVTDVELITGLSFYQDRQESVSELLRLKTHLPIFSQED

| Compound | IC50 |
| --- | --- |
| Cc1nccn1-c1cc(N2CCC(CCP(=O)(O)O)CC2)ncn1 [Compound 93] | < 0.5 µM |
| COc1cccc2c(N3CCC(CCP(=O)(O)O)CC3)ncnc12 [Compound 76] | < 0.5 µM |
| COc1cc2nccc(N3CCC(CCP(=O)(O)O)CC3)c2cc1OC [Compound 71] | < 0.5 µM |
| COc1ccc2c(N3CCC(CCP(=O)(O)O)CC3)ncnc2c1OC [Compound 22] | < 0.5 µM |
| O=P(O)(O)CCC1CCN(c2ncnc3ccccc23)CC1 [Compound 25] | < 0.5 µM |
| O=P(O)(O)CCC1CCN(c2ncnc3ccc(O)cc23)CC1 [Compound 23] | 0.5 to 5 µM |
| COc1ccc(OC)c2c(N3CCC(CCP(=O)(O)O)CC3)ncnc12 [Compound 16] | 0.5 to 5 µM |
| CNC(=O)NCC1CCN(c2ncnc3cc(OC)c(OC)cc23)CC1 [Compound 73] | > 10 µM |
| COc1cc2ncnc(N3CCN(C(=O)CP(=O)(O)O)CC3)c2cc1OC [Compound 75] | < 0.5 µM |
| COc1ccc2ncnc(N3CCC(CCP(=O)(O)O)CC3)c2c1 [Compound 19] | < 0.5 µM |
| COc1cc2ncnc(N3CCC(CCB(O)O)CC3)c2cc1OC [Compound 87] | < 0.5 µM |
| Cc1nccn1-c1cc(N2CCN(CCP(=O)(O)O)CC2)ncn1 [Compound 100] | < 0.5 µM |
| COc1ccc2c(N3CCC(CCP(=O)(O)O)CC3)ncnc2c1 [Compound 10] | < 0.5 µM |
| COc1ccc2c(N3CCN(CCP(=O)(O)O)CC3)ncnc2c1 [Compound 42] | > 10 µM |
| COc1cc2ncnc(N3CCC(CP(=O)(O)O)CC3)c2cc1OC [Compound 88, ((1-(6,7-dimethoxyquinazolin-4-yl)piperidin-4-yl)methyl)phosphonic acid] | < 0.5 µM |
| Nc1ccc2c(N3CCC(CCP(=O)(O)O)CC3)ncnc2c1 [Compound 30] | < 0.5 µM |

| Compound | IC50 |
| --- | --- |
| O=P(O)(O)CCC1CCN(c2ncnc3cccc(F)c23)CC1 [Compound 70] | < 0.5 µM |
| COc1cc2ncnc(N3CCC(COP(=O)(O)O)CC3)c2cc1OC [Compound 60] | < 0.5 µM |
| COc1cc2ccnc(N3CCC(CCP(=O)(O)O)CC3)c2cc1OC [Compound 38] | < 0.5 µM |
| COc1ccc2c(N3CCC(CCP(=O)(O)O)CC3)nc(C)nc2c1 [Compound 12] | < 0.5 µM |
| COc1cc2ncnc(N3CCC(COP(O)(O)=S)CC3)c2cc1OC [Compound 67] | < 0.5 µM |
| COc1cc2ncnc([C@H]3CC[C@@H](CCP(=O)(O)O)CC3)c2cc1OC [Compound 81, (2-((1,4-cis)-4-(6,7-dimethoxyquinazolin-4-yl)cyclohexyl)ethyl)phosphonic acid] | < 0.5 µM |
| COc1cc2ncnc([C@H]3CC[C@H](CCP(=O)(O)O)CC3)c2cc1OC [Compound 82, (2-((1,4-trans)-4-(6,7-dimethoxyquinazolin-4-yl)cyclohexyl)ethyl)phosphonic acid] | < 0.5 µM |
| O=P(O)(O)CCC1CCN(c2ncnc3cc4c(cc23)OCCO4)CC1 [Compound 13] | 0.5 to 5 µM |
| COc1cc(OC)c2ncnc(N3CCC(CCP(=O)(O)O)CC3)c2c1 [Compound 7] | < 0.5 µM |
| COc1cc2ncnc(N3CCC(CCP(O)(O)=S)CC3)c2cc1OC [Compound 83, (2-(1-(6,7-dimethoxyquinazolin-4-yl)piperidin-4-yl)ethyl)phosphonothioic O,O-acid] | < 0.5 µM |
| COc1cc2ncnc(N3CCC(CC(=O)NO)CC3)c2cc1OC [Compound 61] | 0.5 to 5 µM |
| O=P(O)(O)CCC1CCN(c2ncnc3cc(Cl)ccc23)CC1 [Compound 84] | < 0.5 µM |
| O=P(O)(O)CCC1CCN(c2ncnc3cc(O)ccc23)CC1 [Compound 5] | < 0.5 µM |
| COc1ccc2c(N3CCC(CCP(=O)(O)O)CC3)nc(/C=C/c3cccnc3)nc2c1 [Compound 18] | < 0.5 µM |
| CC(C)Oc1ccc2c(N3CCC(CCP(=O)(O)O)CC3)ncnc2c1 [Compound 11] | > 10 µM |
| COc1cccc2c(N3CCC(COP(=O)(O)O)CC3)ncnc12 [Compound 86] | < 0.5 µM |

Target: T1, purified recombinant mouse ENPP1
Assay: ENPP1 enzyme activity assay using 32P cGAMP as a substrate (TLC)
Format: biochemical
Conditions: 32P-cGAMP 5 μM, mouse ENPP1 20 nM, pH 7.5, 5 hours

| Compound | IC50 |
| --- | --- |
| COc1cccc2c(N3CCC(CCP(=O)(O)O)CC3)ncnc12 [Compound 76] | < 0.5 µM |
| COc1cc2ncnc(N3CCN(C(=O)CP(=O)(O)O)CC3)c2cc1OC [Compound 75] | 0.5 to 5 µM |
| COc1ccc2c(N3CCC(CCP(=O)(O)O)CC3)ncnc2c1 [Compound 10] | < 0.5 µM |
| COc1ccc2c(N3CCC(CCP(=O)(O)O)CC3)nc(/C=C/c3cccnc3)nc2c1 [Compound 18] | < 0.5 µM |

Test system: 4T1-luciferase tumor
Assay: 4T1 tumor model: tumor volume and survival with IR, cGAMP, anti-CTLA-4
Format: in vivo, Balb/c mice
Conditions: 20 Gy IR, then single agent intratumorally on day 2, 4 and 7 (100 μL of 100 μM compound 1 or 10 μg cGAMP)

| Compound | tumor shrinkage effect over IR treatment |
| --- | --- |
| Nc1nc2c(ncn2[C@@H]2O[C@@H]3COP(=O)(O)O[C@H]4[C@@H](O)[C@H](n5cnc6c(N)ncnc65)O[C@@H]4COP(=O)(O)O[C@@H]2[C@@H]3O)c(=O)[nH]1 [cGAMP, cyclic guanosine monophosphate-adenosine monophosphate] | no effect over IR treatment |
